For this assay, the system named is Wnt pathway (TCF-dependent transcription in HEK293 luciferase reporter cell line with ER-DSH construct). In words: Cellular assay for Wnt pathway activity (luciferase reporter). The format is cell-based. The note with it: Homo sapiens; Wnt pathway inhibition, HEK293 luciferase reporter cells (ER-DSH, TCF promoter), 24 hours incubation, estrogen-induced. The method, then: 1. Cellular Assay for Wnt Pathway Activity
Compounds were tested for their Wnt pathway inhibitory activities using a luciferase reporter cell based assay. A HEK293 luciferase reporter cell line was used which contained an Estrogen Receptor-Dishevelled (ER-DSH) construct and a T-Cell Factor (TCF) dependent gene promoter luciferase construct.
Compounds, in concentrations from 30 μM down to 1 nM, were incubated for 24 hours on the cells, which were induced for TCF-dependent transcription by the addition of estrogen (10). Luciferase activities were determined using the ONE GLO Luciferase Assay System (Promega) and the ENVISION microplate reader (Perkin Elmer). For analysis, the obtained data were normalized against the untreated vehicle control and fitted for determination of the IC50 values using the Assay Explorer software (Accelrys).
For orientation: A reporter such as luciferase makes a cellular process visible.
A word on the IC50: it is the concentration that gives 50% inhibition. The low end stands for higher potency, the high end for lower potency. With `CC(=O)N(C)CCN(C)c1cncc(Oc2ccc(F)cc2)n1` [Compound 4, N-(2-{[6-(4-Fluoro-phenoxy)-pyrazin-2-yl]-methyl-amino}-ethyl)-N-methyl-acetamide], the IC50 fell in the range of 200 to 1000 nM.

In turn, `CC(=O)N(C)CCN(C)c1cncc(Oc2ccc(B(O)O)cc2)n1` [Compound 7, 4-(6-{[2-(Acetyl-methyl-amino)-ethyl]-methyl-amino}-pyrazin-2-yloxy)-boronic acid] yielded a half-maximal inhibitory concentration (IC50) of 200 to 1000 nM.

For the compound `CC(=O)N(C)CCN(C)c1cncc(Oc2ccc(-c3ccc(CO)nc3)cc2)n1` [Compound 8, N-[2-({6-[4-(6-Hydroxymethyl-pyridin-3-yl)-phenoxy]-pyrazin-2-yl}-methyl-amino)-ethyl]-N-methyl-acetamide], the concentration for half-maximal inhibition (IC50) was less than 200 nM.

`CC(=O)N(C)CCN(C)c1cncc(Oc2ccc(-c3cccc(N4CCN(C)CC4)n3)cc2)n1` [Compound 12] came in with an IC50 of less than 200 nM.

Compound `CCN(CCSc1cncc(Oc2ccc(-c3ccc(C)cn3)cc2)n1)C(C)=O` [Compound 17, N-Ethyl-N-(2-{6-[4-(5-methyl-pyridin-2-yl)-phenoxy]-pyrazin-2-ylsulfanyl}-ethyl)-acetamide] came in with a half-inhibitory concentration (IC50) of less than 200 nM.

`CC(=O)N(C)CCNc1cncc(Oc2ccc(-c3ccc(C)cn3)cc2)n1` [Compound 19, N-Methyl-N-(2-{6-[4-(5-methyl-pyridin-2-yl)-phenoxy]-pyrazin-2-ylamino}-ethyl)-acetamide] came in with an IC50 of less than 200 nM.

`O=C1CCCCN1CCCc1cncc(Oc2ccc(-c3ccc(N4CCOCC4)nc3)cc2)n1` [Compound 25, 1-(3-{6-[4-(6-Morpholin-4-yl-pyridin-3-yl)-phenoxy]-pyrazin-2-yl}-propyl)-piperidin-2-one]: the half-maximal inhibitory concentration (IC50) was less than 200 nM.

Regarding `CNC(=O)CCN(C)c1cncc(Oc2ccc(F)cc2)n1` [Compound 29], the IC50 was in the range of 200 to 1000 nM.

As to `COc1ccc(Oc2cncc(N(C)CCN(C)C(C)=O)n2)cc1` [Compound 30, N-(2-{[6-(4-Methoxy-phenoxy)-pyrazin-2-yl]-methyl-amino}-ethyl)-N-methyl-acetamide], the IC50 was 200 to 1000 nM.

Take `COc1ccc(Oc2cncc(N(C)CCN(C)C(=O)CC(C)(C)C)n2)cc1` [Compound 32, N-(2-{[6-(4-Methoxy-phenoxy)-pyrazin-2-yl]-methyl-amino}-ethyl)-3,3-N-trimethyl-butyramide]: the IC50 fell in the range of 1000 to 10000 nM.

Compound `COc1ccc(Oc2cncc(N(C)CCN(C)C(=O)Cc3cccs3)n2)cc1` [Compound 33, N-(2-{[6-(4-Methoxy-phenoxy)-pyrazin-2-yl]-methyl-amino}-ethyl)-N-methyl-2-thiophen-2-yl-acetamide] returned a half-maximal inhibitory concentration (IC50) of 1000 to 10000 nM.

Turning to `CCC(=O)N(C)CCN(C)c1cncc(Oc2ccc(F)cc2)n1` [Compound 34, N-(2-{[6-(4-Fluoro-phenoxy)pyrazin-2-yl]-methyl-amino}-ethyl)-N-methyl-propionamide], the 50% inhibitory concentration (IC50) lay within 1000 to 10000 nM.

Consider `CCC(=O)N(C)CCN(C)c1cncc(Oc2ccc(OC)cc2)n1` [Compound 35, N-(2-{[6-(4-Methoxy-phenoxy)-pyrazin-2-yl]-methyl-amino}-ethyl)-N-methyl-propionamide], for which the IC50 was in the range of 1000 to 10000 nM.

Turning to `CC(=O)N(C)CCN(C)c1cncc(Oc2ccc(Cl)cc2)n1` [Compound 36, N-(2-{[6-(4-Chloro-phenoxy)-pyrazin-2-yl]-methyl-amino}-ethyl)-N-methyl-acetamide], the IC50 was 200 to 1000 nM.

Compound `CC(=O)N(C)CCN(C)c1cncc(Oc2ccc(Br)cc2)n1` [Compound 37, N-(2-{[6-(4-Bromo-phenoxy)-pyrazin-2-yl]-methyl-amino}-ethyl)-N-methyl-acetamide] yielded an IC50 of less than 200 nM.

`COc1ccc(Oc2cncc(NCC3CCCN(C(C)=O)C3)n2)cc1` (stereo not drawn) [Compound 38, 1-(3-{[6-(4-Methoxy-phenoxy)-pyrazin-2-ylamino]-methyl}-piperidin-1-yl)-ethanone] gave an IC50 of 1000 to 10000 nM.

On to `CC(=O)N1CCCC(CNc2cncc(Oc3ccc(F)cc3)n2)C1` (stereo not drawn) [Compound 39, 1-(3-{[6-(4-Fluoro-phenoxy)-pyrazin-2-ylamino]-methyl}-piperidin-1-yl)-ethanone], for which the IC50 fell in the range of 1000 to 10000 nM.

As for `COc1ccc(Oc2cncc(N3CCCC(CNC(=O)OC(C)(C)C)C3)n2)cc1` (stereo not drawn) [Compound 40, {1-[6-(4-Methoxy-phenoxy)-pyrazin-2-yl]-piperidin-3-ylmethyl}-carbamic acid tert-butyl ester], the half-inhibitory concentration (IC50) was in the range of 1000 to 10000 nM.

With `COc1cccc(Oc2cncc(N(C)CCN(C)C(C)=O)n2)c1` [Compound 41, N-(2-{[6-(3-Methoxy-phenoxy)-pyrazin-2-yl]-methyl-amino}-ethyl)-N-methyl-acetamide], the half-maximal inhibitory concentration (IC50) was in the range of 1000 to 10000 nM.

In turn, `CC(=O)N(C)CCN(C)c1cncc(OC2CCCC2)n1` [Compound 43, N-{2-[(6-Cyclo-pentyloxy-pyrazin-2-yl)-methyl-amino]-ethyl}-N-methyl-acetamide] showed an IC50 of 1000 to 10000 nM.

`CC(=O)N(C)CCN(C)c1cncc(Oc2cccc(C)c2)n1` [Compound 44, N-Methyl-N-{2-[methyl-(6-m-tolyloxy-pyrazin-2-yl)-amino]-ethyl}-acetamide] gave an IC50 of 1000 to 10000 nM.

As to `CCOC(=O)c1cccc(Oc2cncc(N(C)CCN(C)C(C)=O)n2)c1` [Compound 45, 3-(6-{[2-(Acetyl-methyl-amino)-ethyl]-methyl-amino}-pyrazin-2-yloxy)-benzoic acid ethyl ester], the IC50 was in the range of 1000 to 10000 nM.

In the case of `CNCCN(C)c1cncc(OC2CCCCC2)n1` [Compound 46, N-(6-Cyclo-hexyloxy-pyrazin-2-yl)-N,N′-dimethyl-ethane-1,2-diamine], the IC50 lay within 200 to 1000 nM.

`CC(=O)N(C)CCN(C)c1cncc(Oc2ccc3ncccc3c2)n1` [Compound 47, N-Methyl-N-(2-{methyl-[6-(quinolin-6-yloxy)-pyrazin-2-yl]-amino}-ethyl)-acetamide] had an IC50 of 1000 to 10000 nM.

For `CC(=O)N(C)CCN(C)c1cncc(OC2CCCCC2)n1` [Compound 48, N-{2-[(6-Cyclo-hexyloxy-pyrazin-2-yl)-methyl-amino]-ethyl}-N-methyl-acetamide], the IC50 was 1000 to 10000 nM.

`COc1ccc(Oc2cncc(N3CCCC(CNC(C)=O)C3)n2)cc1` (stereo not drawn) [Compound 49, N-{1-[6-(4-Methoxy-phenoxy)-pyrazin-2-yl]-piperidin-3-ylmethyl}-acetamide] displayed a concentration for half-maximal inhibition (IC50) of 1000 to 10000 nM.

`CSc1cccc(Oc2cncc(N(C)CCN(C)C(C)=O)n2)c1` [Compound 50, N-Methyl-N-(2-{methyl-[6-(3-methyl-sulfanyl-phenoxy)-pyrazin-2-yl]-amino}-ethyl)-acetamide] came in with a half-inhibitory concentration (IC50) of 200 to 1000 nM.

With `CC(=O)N(C)CCN(C)c1cncc(Oc2ccccc2F)n1` [Compound 51, N-(2-{[6-(2-Fluoro-phenoxy)-pyrazin-2-yl]-methyl-amino}-ethyl)-N-methyl-acetamide], the IC50 fell in the range of 200 to 1000 nM.

In the case of `CC(=O)N(C)CCN(C)c1cncc(Oc2ccc(C)cc2)n1` [Compound 52, N-Methyl-N-{2-[methyl-(6-p-tolyloxy-pyrazin-2-yl)-amino]-ethyl}-acetamide], the 50% inhibitory concentration (IC50) was less than 200 nM.

Take `COc1ccc(Oc2cncc(N(C)CCN(C)C(=O)Cc3sccc3Cl)n2)cc1` [Compound 53, 2-(3-Chloro-thiophen-2-yl)-N-(2-{[6-(4-methoxy-phenoxy)-pyrazin-2-yl]-methyl-amino}-ethyl)-N-methyl-acetamide]: the IC50 was 1000 to 10000 nM.

Regarding `COc1ccc(Oc2cncc(N(C)CCNC(=O)OC(C)(C)C)n2)cc1` [Compound 54, (2-{[6-(4-Methoxy-phenoxy)-pyrazin-2-yl]-methyl-amino}-ethyl)-carbamic acid tert-butyl ester], the IC50 was in the range of 1000 to 10000 nM.

Compound `CC(=O)N(C)CCN(C)c1cncc(Oc2ccc3cccnc3c2)n1` [Compound 55, N-Methyl-N-(2-{methyl-[6-(quinolin-7-yloxy)-pyrazin-2-yl]-amino}-ethyl)-acetamide] displayed an IC50 of 1000 to 10000 nM.

`CC(=O)N(C)CCN(C)c1cncc(Oc2ccc(O)cc2)n1` [Compound 56, N-(2-{[6-(4-Hydroxy-phenoxy)-pyrazin-2-yl]-methyl-amino}-ethyl)-N-methyl-acetamide]: the IC50 lay within 200 to 1000 nM.

Take `COc1ccc(Oc2cncc(NCC3CCCN3C(C)=O)n2)cc1` (stereo not drawn) [Compound 57, 1-(2-{[6-(4-Methoxy-phenoxy)-pyrazin-2-ylamino]-methyl}-pyrrolidin-1-yl)-ethanone]: the half-inhibitory concentration (IC50) lay in the range of 1000 to 10000 nM.

As for `CC(=O)NCCN(C)c1cncc(Oc2ccc(F)cc2)n1` [Compound 58, N-(2-{[6-(4-Fluoro-phenoxy)-pyrazin-2-yl]-methyl-amino}-ethyl)-acetamide], the IC50 is 1000 to 10000 nM.

`COc1ccc(Oc2cncc(N(C)CCNC(C)=O)n2)cc1` [Compound 59, N-(2-{[6-(4-Methoxy-phenoxy)-pyrazin-2-yl]-methyl-amino}-ethyl)-acetamide] registered an IC50 of 200 to 1000 nM.

Turning to `COc1ccc(Oc2cncc(N(C)CCN(C)S(=O)(=O)c3ccc(F)cc3F)n2)cc1` [Compound 60, 2,4-Difluoro-N-(2-{[6-(4-methoxy-phenoxy)-pyrazin-2-yl]-methyl-amino}-ethyl)-N-methyl-benzene-sulfonamide], the IC50 lay within 1000 to 10000 nM.

Take `COc1ccc(Oc2cncc(N(C)CCN(C)S(=O)(=O)c3cc(F)ccc3F)n2)cc1` [Compound 61, 2,5-Difluoro-N-(2-{[6-(4-methoxy-phenoxy)-pyrazin-2-yl]-methyl-amino}-ethyl)-N-methyl-benzene-sulfonamide]: the IC50 lay within 1000 to 10000 nM.

In the case of `CC(=O)N1CCCC1CNc1cncc(Oc2ccc(F)cc2)n1` (stereo not drawn) [Compound 62, 1-(2-{[6-(4-Fluoro-phenoxy)-pyrazin-2-ylamino]-methyl}-pyrrolidin-1-yl)-ethanone], the IC50 is 1000 to 10000 nM.

The values are drawn from US9493444B2 (Merck Patent GmbH, priority 2012, dated 2016).
